We go through 47 compounds from patent US9771378B2 (Denali Therapeutics, Inc., priority 2014, dated 2017).

SMILES strings stand for the structures. Where only a bound is given, the exact number is not on record here.

The test system of this test is Aβ42 (human neuroglioma H4 cells expressing human wild type APP751). Description: In vitro cell screening assay with sandwich ELISA quantification of Aβ42 peptide. Type of test: cell-based. As to conditions: H4 cells stably expressing human wild type APP751; Pro293 chemically defined medium; compounds 0.003-10 μM; incubated overnight (16-18 h); supernatant Aβ42 by sandwich ELISA; normalized to DMSO and DAPT; read-out: Aβ42 H4 Prot Fre IC50. The method, boiled down:
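Aβ42 in supernatants was quantified by sandwich ELISA with C-terminal-specific capture and 4G8-HRP detection, absorbance at 450 nm. Stable APP751-expressing human H4 cells received compound at 0.003-10 μM (0.33% DMSO) overnight (16-18 h). IC50 was derived from percent-of-DMSO-control data by nonlinear variable-slope fit.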
As for `COc1cc(Nc2ncc3c(n2)N(C)C(c2cc(C(F)(F)F)ccc2Cl)CO3)ccc1-n1cnc(C)c1` (single isomer, unassigned; (-)) [Example 88B], the IC50 worked out at 286 nM.

Regarding `COc1cc(Nc2ncc3c(n2)N(C)C(C)CO3)ccc1-n1cnc(C)c1` (single isomer, unassigned; (-)) [Example 116A], the IC50 was found to be 148 nM.

With `COc1cc(Cl)c(C2COc3cnc(Nc4ccc(-n5cnc(C)c5)c(OC)c4)nc3N2C)cc1Cl` (racemic) [Example 89], the IC50 is 23 nM.

As for `Cc1cc(-c2ccc(Nc3ncc4c(n3)N(C)C(c3ccc(F)cc3)CO4)cc2F)ccn1` (single isomer, unassigned; (+)) [Example 56A], the IC50 was 71 nM.

As to `COc1cc(Nc2ncc3c(n2)N2C(=O)CCC2CO3)cnc1-n1cnc(C)c1` (single isomer, unassigned; (+)) [Example 302A, (+)-2-((5-methoxy-6-(4-methyl-1H-imidazol-1-yl)pyridin-3-yl)amino)-6,6a, 7,8-tetrahydro-9H-pyrimido [5,4-b] pyrrolo [1,2-d] [1, 4] oxazin-9-one], the IC50 is more than 3000 nM.

Consider `Cc1cn(-c2ccc(Nc3ncc4c(n3)N(C)C(c3cc(C(F)(F)F)ccc3Cl)CO4)cc2F)cn1` (single isomer, unassigned; (+)) [Example 173A], for which the IC50 is 72 nM.

With `COc1ccc(C2COc3cnc(Nc4ccc(-n5cnc(C)c5)c(OC)c4)nc3N2C)c(C)c1` (racemic) [Example 92], the IC50 came out at 27 nM.

As for `Cc1cn(-c2ccc(Nc3ncc4c(n3)N(C)C(c3ccccc3C(F)(F)F)CO4)cc2F)cn1` (single isomer, unassigned; (-)) [Example 84B], the IC50 stood at 421 nM.

Consider `COc1cc(Nc2ncc3c(n2)N(C)C(C2COC2)CO3)cnc1-n1cnc(C)c1` (single isomer, unassigned; (+)) [Example 243A], for which the IC50 worked out at 601 nM.

On to `COc1cc(Nc2ncc3c(n2)N(C)C(c2cc(F)cc(F)c2)CO3)ccc1-c1ccnc(C)c1` (single isomer, unassigned; (-)) [Example 42B], for which the IC50 is 801 nM.

On to `Cc1cn(-c2ccc(Nc3ncc4c(n3)N(C)C3(CC3)CO4)cc2F)cn1` [Example 258], for which the IC50 was found to be 324 nM.

Regarding `COc1ccc(C2COc3cnc(Nc4ccc(-n5cnc(C)c5)c(OC)c4)nc3N2C)c(C)c1` (single isomer, unassigned; (+)) [Example 199A], the IC50 was 25 nM.

Take `Cc1cn(-c2ccc(Nc3ncc4c(n3)N(C)C(c3cc(F)c(F)cc3Cl)CO4)cc2F)cn1` (single isomer, unassigned; (+)) [Example 169A]: the concentration for half-maximal inhibition (IC50) stood at 45 nM.

Regarding `Cc1cc(-c2ccc(Nc3ncc4c(n3)N(C)C(c3ccc(F)cc3F)CO4)cc2F)ccn1` (single isomer, unassigned; (+)) [Example 66A], the concentration for half-maximal inhibition (IC50) was determined as 488 nM.

For the compound `COc1cc(Nc2ncc3c(n2)N(C)C2(CCCC2)CO3)cnc1-c1cnn(C)c1` [Example 266], the IC50 is more than 3000 nM.

On to `Cc1cn(-c2ccc(Nc3ncc4c(n3)N(C)C(c3cc(F)cc(F)c3)CO4)nc2C#N)cn1` (single isomer, unassigned; (-)) [Example 192A, (−)-6-((7-(3,5-difluorophenyl)-8-methyl-7,8-dihydro-6H-pyrimido [5,4-b] [1, 4]oxazin-2-yl)amino)-3-(4-methyl-1H-imidazol-1-yl) picolinonitrile], for which the IC50 was more than 3000 nM.

Take `Cc1cn(-c2ccc(Nc3ncc4c(n3)N(C)C(c3cc(F)c(F)c(F)c3)CO4)cc2)cn1` (single isomer, unassigned; (-)) [Example 115A]: the IC50 came to 2860 nM.

As to `COc1cc(Nc2ncc3c(n2)N2CCC(F)(F)C2CO3)ccc1-n1cnc(C)c1` (single isomer, unassigned; (-)) [Example 304A, (−)-7,7-difluoro-N-(3-methoxy-4-(4-methyl-1H-imidazol-1-yl)phenyl)-6a, 7,8,9-tetrahydro-6H-pyrimido [5,4-b] pyrrolo [1,2-d] [1, 4] oxazin-2-amine], the 50% inhibitory concentration (IC50) came out at 274 nM.

On to `Cc1cc(-c2ccc(Nc3ncc4c(n3)N(C)C(c3ccccc3C)CO4)cc2F)ccn1` (single isomer, unassigned; (+)) [Example 32B], for which the IC50 worked out at 131 nM.

For `COc1cc(Nc2ncc3c(n2)N(C)C(c2ccc(F)cc2F)CO3)cnc1-n1cnc(C)c1` (single isomer, unassigned; (+)) [Example 186A], the IC50 turned out to be 18 nM.

Consider `COc1cc(Nc2ncc3c(n2)N(C)C(c2cc(F)cc(F)c2)CO3)ncc1-n1cnc(C)c1` (single isomer, unassigned; (-)) [Example 220A], for which the half-maximal inhibitory concentration (IC50) was more than 3000 nM.

Consider `COc1cc(Nc2ncc3c(n2)N(C)C(c2ccccc2)CO3)ccc1-c1ccnc(C)c1` (racemic) [Example 46, N-(3-methoxy-4-(2-methylpyridin-4-yl)phenyl)-8-methyl-7-phenyl-7,8-dihydro-6H-pyrimido[5,4-b][1,4]oxazin-2-amine], for which the half-inhibitory concentration (IC50) amounted to 48 nM.

For `COc1cc(Nc2ncc3c(n2)N(C)C(c2ccccc2C(F)(F)F)CO3)ccc1-n1cnc(C)c1` (single isomer, unassigned; (+)) [Example 55B], the IC50 is 66 nM.

As to `COc1cc(Nc2ncc3c(n2)N(C)C(C2CC(F)(F)C2)CO3)cnc1-n1cnc(C)c1` (single isomer, unassigned; (-)) [Example 219B], the IC50 came out at 398 nM.

On to `COc1cc(Nc2ncc3c(n2)N(C)C(c2cc(F)c(F)cc2F)CO3)cnc1-n1cnc(C)c1` (single isomer, unassigned; (+)) [Example 181B], for which the IC50 was 392 nM.

With `COc1cc(Nc2ncc3c(n2)N(C)C(C(F)(F)F)CO3)ccc1-n1cnc(Cl)c1` (single isomer, unassigned; (-)) [Example 228B], the IC50 amounted to 14 nM.

In the case of `COc1cc(Nc2ncc3c(n2)N(C)C(c2ccc(F)cc2C)CO3)ccc1-n1cnc(C)c1` (single isomer, unassigned; (-)) [Example 117A], the IC50 came to 140 nM.

For `COc1cc(Nc2ncc3c(n2)N(C)[C@@H](C(C)(C)C)CO3)ccc1-n1cnc(C)c1` [Example 240], the IC50 was determined as 21 nM.

Regarding `Cc1cc(-c2ccc(Nc3ncc4c(n3)N(C)C(c3cc(F)c(F)c(F)c3)CO4)cc2F)ccn1` (single isomer, unassigned; (-)) [Example 36B], the IC50 turned out to be 1250 nM.

Take `COc1cc(Nc2ncc3c(n2)N(C)C(C)CO3)ccc1-c1ccnc(C)c1` (single isomer, unassigned; (+)) [Example 110B]: the IC50 turned out to be 91 nM.

Regarding `Cc1cc(-c2ccc(Nc3ncc4c(n3)N(C)C(c3cc(F)cc(F)c3)CO4)cc2F)ccn1` (single isomer, unassigned; (-)) [Example 41B], the IC50 amounted to 1260 nM.

For `COc1cc(Nc2ncc3c(n2)N(C)C2(CC2)CO3)ccc1-n1cnc(C)c1` [Example 257], the half-maximal inhibitory concentration (IC50) worked out at 49 nM.

`COc1cc(Nc2ncc3c(n2)N(C)C(C2COC2)CO3)cnc1-n1cnc(C)c1` (single isomer, unassigned; (-)) [Example 243B]: the IC50 came to 814 nM.

With `COc1cc(Nc2ncc3c(n2)N(C)C(C)CO3)ccc1-n1cnc(C)c1` (single isomer, unassigned; (+)) [Example 116B], the IC50 was found to be 63 nM.

Take `COc1cc(Nc2ncc3c(n2)N(C)C(C2CC(F)(F)C2)CO3)cnc1-n1cnc(C)c1` (single isomer, unassigned; (+)) [Example 219A]: the IC50 worked out at 25 nM.

For `COC[C@@H]1COc2cnc(Nc3ccc(-n4cnc(C)c4)c(OC)c3)nc2N1C` [Example 176], the IC50 worked out at 369 nM.

`Cc1cn(-c2ccc(Nc3ncc4c(n3)N(C)C(c3cc(F)cc(F)c3)CO4)cc2)cn1` (single isomer, unassigned; (+)) [Example 23B]: the IC50 was 32 nM.

Consider `COc1cc(Nc2ncc3c(n2)N(C)C2(CC2)CO3)cnc1-n1cnc(C)c1` [Example 260], for which the IC50 came out at 213 nM.

For the compound `COc1cc(Nc2ncc3c(n2)N(C)[C@@H](c2ccccc2)CO3)ccc1-n1cnc(C)c1` [Example 21A, (S)—N-(3-methoxy-4-(4-methyl-1H-imidazol-1-yl)phenyl)-8-methyl-7-phenyl-7,8-dihydro-6H-pyrimido[5,4-b][1,4]oxazin-2-amine], the IC50 was 22 nM.

Regarding `COc1cc(Nc2ncc3c(n2)N(C)C(c2ccccc2C)CO3)cnc1-n1cnc(C)c1` (single isomer, unassigned; (-)) [Example 171B], the IC50 came to 67 nM.

Turning to `COc1cc(Nc2ncc3c(n2)N(C)C(C2CCS(=O)(=O)CC2)CO3)ccc1-n1cnc(C)c1` (single isomer, unassigned; (-)) [Example 239A, (−)-4-(2-((3-methoxy-4-(4-methyl-1H-imidazol-1-yl)phenyl)amino)-8-methyl-7,8-dihydro-6H-pyrimido [5,4-b] [1, 4]oxazin-7-yl) tetrahydro-2H-thiopyran 1,1-dioxide], the IC50 is 407 nM.

`COc1cc(Nc2ncc3c(n2)N(C)C2(CCCC2)CO3)ccc1-c1cnn(C)c1` [Example 264]: the IC50 worked out at 260 nM.

Take `Cc1cn(-c2ccc(Nc3ncc4c(n3)N(C)C(c3cc(F)c(F)c(F)c3)CO4)cc2)cn1` (racemic) [Example 44]: the IC50 amounted to 75 nM.

For the compound `COc1cc(Nc2ncc3c(n2)N(C)C(c2ccc(Cl)cc2Cl)CO3)ccc1-n1cnc(C)c1` (single isomer, unassigned; (+)) [Example 95B], the IC50 amounted to 15 nM.

Take `COc1cc(Nc2ncc3c(n2)N(C)C(C(F)(F)F)CO3)cnc1-n1cnc(C)c1` (single isomer, unassigned; (+)) [Example 193A]: the IC50 came to 908 nM.

In the case of `COc1cc(Nc2ncc3c(n2)N(C)C(c2cc(F)c(F)cc2F)CO3)ccc1-n1cnc(C)c1` (single isomer, unassigned; (-)) [Example 97A], the IC50 was determined as 244 nM.

In the case of `Cc1cn(-c2ccc(Nc3ncc4c(n3)N(C)C(c3cc(F)ccc3C(F)(F)F)CO4)cc2F)cn1` (single isomer, unassigned; (+)) [Example 104B], the IC50 was determined as 77 nM.
